Measured values taken from US20100055169A1, “CATIONIC LIPIDS AND USES THEREOF” (ABBOTT LABORATORIES, priority 2008, published 2010).

Experiments:
Assay type in all cases: physicochemical
[1] = Particle sizing by dynamic light scattering (DynaPro plate reader), in vitro formulations; details: in vitro formulation b: Cationic lipid/PEG-cholesterol/DSPC/Chol 45/10/15/30 wt %, lipid:siRNA 25:1
Protocol: The siRNA concentrations were measured using Quanti-iT RiboGreen RNA reagent (Molecular Probes, (R11490)). Vesicle sizes were characterized by dynamic light scattering with a DynaPro™ Plate Reader (Wyatt Technology) in 96-well half-area UV plate (Coring) after diluting the formulation sample (20 μL) in phosphate buffered saline (80 μL) at a pH of about 7-8. A 1% agarose gel-based assay was used for analyzing nuclease degradation and protection. Encapsulation efficiency (EE) was calculated using data obtained from a RiboGreen assay.
Particle sizes and size distributions (PDI) were characterized by using dynamic light scattering (DLS). A DLS plate reader (Dynapro™, Wyatt Technology) was used for the DLS measurement. This DLS plate reader uses an 830 nm laser and the scattering angle is 158°. It also can control temperature from 4° C. to 70° C. A 96-well format was employed for the samples.
Samples for DLS analysis were prepared by mixing 20 μL of each sample stock solution with 80 μL PBS directly in the 96-well plate (#3697, Corning). Sample mixing was accomplished using a microplate shaker (Orbis, Mikura Ltd.). Plates were read at 20° C. with an acquisition time of 50 seconds for each sample, and data was analyzed with Wyatt Technology's Dynamics V6 software. To rule out potential multiple scattering artifacts, a second plate at 4-fold reduced sample concentrations was independently prepared by mixing 5 μL stock solutions with 95 μL PBS. Under our experimental conditions the results at the two concentrations were very similar, and the final reported result for each sample represents the average of values obtained from the two plates.

[2] = Particle sizing assay (Zetasizer Nano ZS), in vivo formulations; details: lipid:siRNA 25:1
Protocol: (§1) A round bottom flask was submerged into a 65° C. water bath. Citrate buffer (37.5 ml) of pH 4.0 was pipetted into the flask. The solution was stirred by a magnetic stirring bar at a speed of 900 rpm. Both the pH 4.0 citrate buffer and the lipid solution were pre-warmed in the 65° C. water bath for about 3 minutes. A siRNA solution (0.5 ml) was pipetted into the pH 4.0 citrate buffer. The 12.5 ml lipid mixture solution was injected through a 27 gauge needle into the citrate buffer in about 30 seconds. The needle tip was inserted into the solution during the injection. The resulting solution was stirred for 5 minutes at a speed of 900 rpm. The flask was pulled up from the water bath and a 50 ml pH 7.4 PBS buffer was added into the flask. The final solution was further mixed at a speed of 900 rpm for 5 minutes. For the diafiltration process, a dialysis filter (Millipore, 100K, Cat#PXB100C50) was used to remove ethanol in the above solution. When the volume was reduced to 20 ml during the initial diafiltration, 20 ml of pH 7.4 PBS was added to the sample solution. The diafiltration was continued until the volume was reduced to 20 ml. The diafiltration process was repeated 4 times. The volume of the sample solution was reduced to about 12 ml and pH 7.4 PBS was added to make the final volume of 15 ml. The 15 ml solution was filtered sequentially through the 0.45 and 0.22 μm sterile PVDF membrane filters (Millipore) and immediately transferred into a sterile vial.
For measurements of particle sizes and size distributions (PDI), lipid-based particles were prepared as described above. The particle solution (60 μL) was pipetted into a disposable cuvette (UVette, Eppendorf, cat#952010051) and measured in the “General Purpose” mode. Attenuator and position were optimized by the device. Measurements were performed using a Zetasizer Nano ZS (Malvern Instruments) equipped with a 4 mW He—Ne laser at a wavelength of 633 nm at 25° C. Scattered light was detected at a 173° backward scattering angle. The viscosity and refractive index of water at 25° C. was used for data analysis with the Dispersion Technology Software 5.00 (Malvern Instruments).

[3] = RiboGreen assay of siRNA encapsulation efficiency, in vivo formulations of Lipid-Based Particles; details: lipid:siRNA 25:1
Protocol: RNA concentration and encapsulation efficiency were determined using a Quant-iT® Ribogreen RNA reagent and kit available from Invitrogen. The siRNA was released from the Lipid-Based Particle using one of the following reagents: ethanol, Triton X-100, or phenol/chloroform. The siRNA concentration is quantified using fluorescent reading at 480 nm/520 nm.
The lipid solution was prepared (10 mg/ml) by dissolving the lipid in 200 proof ethanol. The lipid mixture solution is prepared according to the above composition in Table 5.
An siRNA (TetR_ODC—12, G.G.G.G.A.A.A.G.C.U.G.G.C.A.A.G.A.U.U.U.U SEQ ID NO: 1) (ThermoFisher) solution is prepared in a concentration of 10 mg/ml by dissolving 10 mg siRNA in 1 ml of DNAse/RNAse-free distilled water.
as §1

[4] = in vivo formulation A: Cationic lipid/Example 73/DSPC/Chol 45/10/15/30 wt %
[5] = in vivo formulation B: Cationic lipid/PEG-cholesterol/DSPC/Chol 45/10/15/30 wt %
[6] = in vivo formulation C: Cationic lipid/Pal-PEG-Cera/DSPC/Chol 45/10/15/30 wt %
[7] = in vivo formulation D: Cationic lipid/Example 66/DSPC/Chol 45/10/15/30 wt %
[8] = in vivo formulation E: Cationic lipid/Example 53/DSPC/Chol 45/10/15/30 wt %
[9] = in vivo formulation F: Cationic lipid/Example 54/DSPC/Chol 45/10/15/30 wt %
[10] = in vivo formulation G: Cationic lipid/Example 55/DSPC/Chol 45/10/15/30 wt %
[11] = in vivo formulation H: Cationic lipid/PEG-DMPE/DSPC/Chol 45/10/15/30 wt %
[12] = in vivo formulation J: Cationic lipid/PEG-DSPE/DSPC/Chol 45/10/15/30 wt %
[13] = in vivo formulation K: Cationic lipid/PEG-DMG/DSPC/Chol 45/10/15/30 wt %
[14] = in vivo formulation M: Cationic lipid/PEG-DSG/DSPC/Chol 45/10/15/30 wt %
[15] = in vivo formulation NN: Cationic lipid/Example 74/DSPC/Chol 45/10/15/30 wt %
[16] = in vivo formulation OO: Cationic lipid/Example 75/DSPC/Chol 45/10/15/30 wt %
[17] = in vivo formulation P: Cationic lipid/PEG-DSPE/DOPE/Chol 45/10/15/30 wt %
[18] = in vivo formulation PP: Cationic lipid/Example 73/Chol 45/10/45 wt %
[19] = in vivo formulation Q: Cationic lipid/PEG-DSPE/DOPC/Chol 45/10/15/30 wt %
[20] = in vivo formulation R: Cationic lipid/PEG-DSPE/SPC/Chol 45/10/15/30 wt %

CCCCC/C=C\C/C=C\CCCCCCCCOCC(CCN1CCCC1)OCCCCCCCC/C=C\C/C=C\CCCCC (stereo not drawn) [Example 24, 1-{3,4-bis[(9Z,12Z)-octadeca-9,12-dienyloxy]butyl}pyrrolidine]
Size [1]: 135.4 nm | Size [2, 4]: 96 nm | Size distribution (PDI) [2, 4]: (0.06) | Size [2, 5]: 327 nm | Size distribution (PDI) [2, 5]: (0.198) | Size [2, 6]: 141 nm | Size distribution (PDI) [2, 6]: (0.026) | Size [2, 7]: 164 nm | Size distribution (PDI) [2, 7]: (0.104) | Size [2, 8]: 169 nm | Size distribution (PDI) [2, 8]: (0.163) | Size [2, 9]: 152 nm | Size distribution (PDI) [2, 9]: (0.08) | Size [2, 10]: 164 nm | Size distribution (PDI) [2, 10]: (0.104) | Size [2, 11]: 168 nm | Size distribution (PDI) [2, 11]: (0.007) | Size [2, 12]: 119.7 nm | Size distribution (PDI) [2, 12]: (0.006) | Size [2, 13]: 155 nm | Size distribution (PDI) [2, 13]: (0.052) | Size [2, 14]: 116.5 nm | Size distribution (PDI) [2, 14]: (0.029) | Size [2, 15]: 140 nm | Size distribution (PDI) [2, 15]: (0.029) | Size [2, 16]: 142 nm | Size distribution (PDI) [2, 16]: (0.029) | Size [2, 17]: 153.7 nm | Size distribution (PDI) [2, 17]: (0.061) | Size [2, 18]: 108.7 nm | Size distribution (PDI) [2, 18]: (0.094) | Size [2, 19]: 144.1 nm | Size distribution (PDI) [2, 19]: (0.01) | Size [2, 20]: 159.6 nm | Size distribution (PDI) [2, 20]: (0.036) | % Encapsulation Efficiency [3, 4]: 96.6% | % Encapsulation Efficiency [3, 5]: 89.3% | % Encapsulation Efficiency [3, 6]: 97.8% | % Encapsulation Efficiency [3, 7]: 97.0% | % Encapsulation Efficiency [3, 8]: 79.3% | % Encapsulation Efficiency [3, 9]: 96.1% | % Encapsulation Efficiency [3, 10]: 96.7% | % Encapsulation Efficiency [3, 11]: 97.3% | % Encapsulation Efficiency ([3]; in vivo formulation I: Cationic lipid/PEG-DPPE/DSPC/Chol 45/10/15/30 wt %): 92% | % Encapsulation Efficiency [3, 12]: 100% | % Encapsulation Efficiency [3, 13]: 99.5% | % Encapsulation Efficiency ([3]; in vivo formulation L: Cationic lipid/PEG-DPG/DSPC/Chol 45/10/15/30 wt %): 90% | % Encapsulation Efficiency [3, 14]: 100% | % Encapsulation Efficiency [3, 15]: 97.3% | % Encapsulation Efficiency [3, 16]: 99.5% | % Encapsulation Efficiency [3, 17]: 97% | % Encapsulation Efficiency [3, 18]: 97.4% | % Encapsulation Efficiency [3, 19]: 97% | % Encapsulation Efficiency [3, 20]: 97%
